Experimental data as given in paper PMC5576140 (Antiviral research, 2017).
In brackets after ≈: the same amount, converted by molar mass. Like-named read-outs stand apart in the source and are kept apart here.

Legend:
[1] = Viability assay in MT-4 cell cultures; type: cell-based; conditions: human, MT-4 cells
HIV-1 X4LAI.04 = assay: HIV-1 inhibition in MT-4 cell cultures; type: cell-based; conditions: read-out: EC50 (MT-4)
[2] = type: in vitro ADME; conditions: for hydrolysis products found in human blood serum: HPLC-HRMS; for stability in human blood serum: 15 h
M. tuberculosis H37Rv = assay: Anti-TB activity, growth in Middlebrook 7H9 medium, BACTEC MGIT960; type: cell-based; conditions: growth inhibition not less than 99%
M. tuberculosis MS-115 = assay: as above; type: cell-based; conditions: clinical MDR strain
[3] = Chemical stability at pH 2.2, 7.4 and 9.0; type: physicochemical; conditions: pH 9.0 (glycine+NaOH)
[4] = growth inhibition not less than 99%
[5] = value in brackets, same MIC in μM
[6] = MT-4 cell cultures, HIV-1 X4LAI.04, 3 days, p24gag

## Cc1cn([C@H]2C[C@H](N=[N+]=[N-])[C@@H](CO)O2)c(=O)[nH]c1=O [AZT, 3′-azido-3′-deoxythymidine, reference compound]
[1]
  CC50: > 100000 nM
HIV-1 X4LAI.04; Human immunodeficiency virus 1, MT4, 72 h
  EC50: 30 nM

## CCCCCCCCCCc1cn(Cc2cn([C@H]3C[C@H](O)[C@@H](COC(=O)OC[C@H]4O[C@@H](n5cc(C)c(=O)[nH]c5=O)C[C@@H]4N=[N+]=[N-])O3)c(=O)[nH]c2=O)nn1 [Compound 1, 5′-O-[AZT-carbonyl]-5-[(4-decyl-1,2,3-triazol-1-yl)methyl]-2′-deoxyuridine]
[2]
  hydrolysis products found in human blood serum: both AZT and dU^R derivative
M. tuberculosis H37Rv
  MIC (99) M.tuberculosis H37Rv: 50 µg/mL (≈ 67.3 µM)
M. tuberculosis MS-115; [4]
  MIC (99) M.tuberculosis MS-115: 50 µg/mL
M. tuberculosis MS-115; [5]
  MIC (99) M.tuberculosis MS-115: 67 µM
HIV-1 X4LAI.04; [6]
  EC50: 390 nM

## CCCCCCCCCCc1cn(Cc2cn([C@H]3C[C@H](OC(=O)OC[C@H]4O[C@@H](n5cc(C)c(=O)[nH]c5=O)C[C@@H]4N=[N+]=[N-])[C@@H](CO)O3)c(=O)[nH]c2=O)nn1 [Compound 2, 3′-O-[AZT-carbonyl]-5-[(4-decyl-1,2,3-triazol-1-yl)methyl]-2′-deoxyuridine]
[2]
  hydrolysis products found in human blood serum: both AZT and dU^R derivative
M. tuberculosis H37Rv
  MIC (99) M.tuberculosis H37Rv: 10 µg/mL (≈ 13.5 µM)
M. tuberculosis MS-115; [4]
  MIC (99) M.tuberculosis MS-115: 20 µg/mL
M. tuberculosis MS-115; [5]
  MIC (99) M.tuberculosis MS-115: 27 µM
HIV-1 X4LAI.04; [6]
  EC50: 70 nM

## CCCCCCCCCCc1cn(Cc2cn([C@H]3C[C@H](OC(=O)OC[C@H]4O[C@@H](n5cc(C)c(=O)[nH]c5=O)C[C@@H]4N=[N+]=[N-])[C@@H](COC(=O)OC[C@H]4O[C@@H](n5cc(C)c(=O)[nH]c5=O)C[C@@H]4N=[N+]=[N-])O3)c(=O)[nH]c2=O)nn1 [Compound 3, 3′,5′-di-O-[AZT-carbonyl]-5-[(4-decyl-1,2,3-triazol-1-yl)methyl]-2′-deoxyuridine]
[2]
  hydrolysis products found in human blood serum: 1, 2, AZT, and dU^R
M. tuberculosis H37Rv
  MIC (99) M.tuberculosis H37Rv: 20 µg/mL (≈ 19.3 µM)
M. tuberculosis MS-115; [4]
  MIC (99) M.tuberculosis MS-115: 10 µg/mL
M. tuberculosis MS-115; [5]
  MIC (99) M.tuberculosis MS-115: 9.7 µM
HIV-1 X4LAI.04; [6]
  EC50: 80 nM

## CCCCOc1ccc(Nc2cn(C3C=CC(O)C3)c(=O)n(CCCn3c(=O)c(C)cn(C4CC(N=[N+]=[N-])C(CO)O4)c3=O)c2=O)cc1 (stereo not drawn) [Compound 5, [AZT]-N3-propyl-N3-[1-N-(4′-hydroxycyclopent-2′-enyl)-5-(p-butoxyphenylamino)]uracil]
[2]
  stability in human blood serum: stable
M. tuberculosis H37Rv
  MIC (99) M.tuberculosis H37Rv: > 50 µg/mL
M. tuberculosis MS-115; [4]
  MIC (99) M.tuberculosis MS-115: 50 µg/mL
M. tuberculosis MS-115; [5]
  MIC (99) M.tuberculosis MS-115: 75 µM
[3]
  stability to chemical hydrolysis: stable
HIV-1 X4LAI.04; [6]
  EC50: 12900 nM

## Cc1cn([C@H]2C[C@H](O)[C@@H](COP(=O)(O)O)O2)c(=O)[nH]c1=O [TMP, reference compound]
[2]
  T1/2 in human blood serum: 20 min

## [AZT]-N3-propyl-N3-[1-N-[4′-(o,o-dimethylbenzyl)cyclopent-2′-enyl]uracil] [Compound 4]
[2]
  stability in human blood serum: only slight debenzoylation at the carbocyclic fragment
[3]
  stability to chemical hydrolysis: stable
HIV-1 X4LAI.04; [6]
  EC50: 19800 nM
